The assay concerns the target T1, ULK1 (Homo sapiens, UniProt O75385).
T1 construct: purchased Promega V3521
T1 sequence (O75385 1-1050): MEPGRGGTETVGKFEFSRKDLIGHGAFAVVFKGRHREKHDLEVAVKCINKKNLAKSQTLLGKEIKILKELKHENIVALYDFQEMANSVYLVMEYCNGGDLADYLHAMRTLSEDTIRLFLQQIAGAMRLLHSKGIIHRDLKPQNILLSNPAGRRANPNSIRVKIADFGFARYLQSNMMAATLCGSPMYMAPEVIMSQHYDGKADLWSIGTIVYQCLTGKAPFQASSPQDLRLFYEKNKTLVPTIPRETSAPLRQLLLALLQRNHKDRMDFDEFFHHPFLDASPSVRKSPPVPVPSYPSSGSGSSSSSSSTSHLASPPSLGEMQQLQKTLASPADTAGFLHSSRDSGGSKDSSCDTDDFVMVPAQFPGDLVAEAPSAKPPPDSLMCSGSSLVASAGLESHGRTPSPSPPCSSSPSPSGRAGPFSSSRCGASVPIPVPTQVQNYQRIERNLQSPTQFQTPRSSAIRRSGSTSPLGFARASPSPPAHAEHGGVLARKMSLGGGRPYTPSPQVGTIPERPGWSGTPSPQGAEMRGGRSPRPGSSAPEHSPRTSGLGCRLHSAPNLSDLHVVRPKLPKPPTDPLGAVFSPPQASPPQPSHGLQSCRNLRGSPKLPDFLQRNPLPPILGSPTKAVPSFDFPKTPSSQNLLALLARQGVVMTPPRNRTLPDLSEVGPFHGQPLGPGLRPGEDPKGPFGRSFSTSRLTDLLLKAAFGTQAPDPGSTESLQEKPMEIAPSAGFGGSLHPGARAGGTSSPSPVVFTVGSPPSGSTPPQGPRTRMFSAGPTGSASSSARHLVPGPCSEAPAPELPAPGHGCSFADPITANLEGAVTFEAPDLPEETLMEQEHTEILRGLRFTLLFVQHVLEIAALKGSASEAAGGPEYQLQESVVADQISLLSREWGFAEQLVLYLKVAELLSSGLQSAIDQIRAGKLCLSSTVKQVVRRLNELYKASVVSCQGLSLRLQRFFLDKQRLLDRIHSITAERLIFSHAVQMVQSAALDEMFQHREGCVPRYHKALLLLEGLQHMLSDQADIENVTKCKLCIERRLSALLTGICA
The experiment in a line: Inhibition of ULK1 protein activity (phosphorylation function), ADP-Glo method. The class given is biochemical. As to conditions: ADP-Glo; ULK1 (Promega), ATP and MBP substrate, 60 min at room temperature; 10 concentrations, maximum 10 µM; read-out: ULK1 IC50. As to the method:
In this experiment, the inhibitory effect of a compound on the phosphorylation function of ULK1 was detected by ADP-Glo method. The inhibitory effect of the compound of the present disclosure on the ULK1 target was evaluated based on IC50.
Compound formulation: Using an ECHO (Beckman, ECHO650), the compound was serially diluted 3-fold in DMSO in a 384-well plate (PE, 6007290). A total of 10 concentration points were set, with the maximum concentration of the compound being 10 µM, and 50 nL per well. Positive control wells and negative control wells were added with 50 nL DMSO, respectively.
Reaction process: A 32 nM of ULK1 (Promega, V3521) solution was formulated, and 2.5 µL/well was transferred to the compound test wells and the negative control wells (NC). 2.5 µL/well of 1× Assay buffer was added to the positive control wells (PC). A mixed solution of 100 µM of ATP and 1.86 µM of MBP was formulated, and 2.5 µL/well was transferred to the reaction plate. After centrifugation, the reaction was initiated and incubated at room temperature for 60 min. After the reaction was completed, 5 µL/well of ADP-Glo Reagent (Promega, V9102) was added to the reaction plate. After centrifugation, the reaction was incubated at room temperature for 40 minutes. Finally, 10 µL/well of Kinase Detection Buffer was added, followed by centrifugation and incubation at room temperature for 30 min. The chemiluminescence value was read using Envision (PE, Envision2105).
Assay buffer: a reaction buffer; and Kinase Detection buffer: a detection buffer, both were taken from the ADP-Glodetection kit, purchased from Promega, model V9102.
The inhibition ratio of a compound on ULK1 activity was calculated using the following formula: [formula]
The dose-effect curve was fitted using the log(inhibitor) vs. response -Variable slope of the analysis software GraphPad Prism 8, thereby affording the IC50 value of each compound for enzyme activity.

Take `CN1CCN2c3ccc(Nc4ncc(C(F)(F)F)c(OCCCn5nccc5Cl)n4)cc3COCC2C1` (centres unmarked) [Compound 10]: the IC50 was less than 100 nM.

With `CN1CCC2(CC1)CCN(c1nc(Nc3ccc4c(c3)COCC3CN(C)CCN43)ncc1C(F)(F)F)CC2` (centres unmarked) [Compound 13], the half-maximal inhibitory concentration (IC50) was 100 to 1000 nM.

Take `CN1CCC2(CCN(c3nc(Nc4ccc5c(c4)COCC4CN(C6COC6)CCN54)ncc3C(F)(F)F)C2)C1` (centres unmarked) [Compound 19]: the half-maximal inhibitory concentration (IC50) was less than 100 nM.

With `CN1CCN2c3ccc(Nc4ncc(C(F)(F)F)c(OCCCN5CCCOC5=O)n4)cc3COCC2C1` (centres unmarked) [Compound 16], the IC50 is less than 100 nM.

`CN1CCN2c3ccc(Nc4ncc(C(F)(F)F)c(OCCCN5CCCCC5=O)n4)cc3N(C)C(=O)C2C1` (centres unmarked) [Compound 14]: the IC50 is less than 100 nM.

For the molecule `CN1CCN2c3ccc(Nc4ncc(C(F)(F)F)c(O[C@H]5CC[C@@H](n6cccn6)CC5)n4)cc3COCC2C1` (some centres unmarked) [Compound 7], the concentration for half-maximal inhibition (IC50) was less than 100 nM.

As to `CN1CCN2c3ccc(Nc4ncc(C(F)(F)F)c(OCCCN5CCCCC5=O)n4)cc3OCCC2C1` (centres unmarked) [Compound 15], the IC50 is less than 100 nM.

`CC(=O)N1CCN2c3ccc(Nc4ncc(C(F)(F)F)c(N5CCC6(CCN(C)C6)C5)n4)cc3COCC2C1` (centres unmarked) [Compound 18]: the half-inhibitory concentration (IC50) is less than 100 nM.

(Values after patent EP4778931A1, “ULK1 INHIBITOR, PREPARATION METHOD THEREFOR AND USE THEREOF” (Dovetree Medicines Unus, Inc., priority 2023, dated 2025).)
